Series [1] is described as follows: Storage stability at ambient temperature, measured by HPLC (stability and purity test). Format: physicochemical. The settings on record: samples stored for 4 months at ambient temperature. As to the method:
Stability and Purity Test:
Apparatus: Agilent 11 Series • Column: YMC-Pro C18; 150×4,6 mm, S-5 μm, 120A • Eluent: mobile phase A: 3.884 g of amidosulfonic acid in 1000 g of water; mobile phase B: 3.884 g of amidosulfonic acid in 250 g of water and 588 g of acetonitrile.
Measurement at a wavelength of 220 nm; injection volume 7 μl, oven temperature 40° C., Flow 1.0 ml/min
Sample preparation: approximately 10 mg of a sample of the crystalline form of alogliptin free base are dissolved in 10 ml of acetonitrile and the solution is filled up to 25 ml with water
Run time 20 min • Gradient: […]

The nature of series [2]: Hygroscopicity: water uptake on stepwise increase/decrease of relative humidity. It counts as physicochemical. To be noted: for water uptake: value at end of the one hour storage period. How it is done:
In these experiments humidity was increased/decreased stepwise. Starting at 0% relative humidity every one hour the humidity level was increased by 10% relative humidity. The gain/loss of weight was recorded continuously. The values given represent the value at the end of the one hour storage period at the indicated relative humidity level.
This water is easily lost, e.g. by storage at a relative humidity of 60% or less.

The values that follow come from US8455639B2, “Crystalline form of an organic compound” (Sandoz AG, priority 2008, dated 2013).

`Cn1c(=O)cc(N2CCC[C@@H](N)C2)n(Cc2ccccc2C#N)c1=O` [2-[6-[3(R)-aminopiperidin-1-yl]-3-methyl-2,4-dioxo-1,2,3,4-tetrahydropyrimidin-1-ylmethyl]-benzonitrile]: the “degradation (chemical stability)” value in series [1] is listed as “no degradation”. Also, in series [2] (exposed to extremely high relative humidity), the “change in crystal structure / formation of a hydrated form” value is “No change in crystal structure nor the formation of a hydrated form”. Moreover, the hygroscopicity entry in series [2] (in words) is “low hygroscopicity”. In addition, the results for the water uptake result in series [2] (stored at about 25° C. for 60 min at a relative humidity of 50%) and in series [2] (stored at about 90% relative humidity at about 25° C. for 60 min) were “about 0.4 % w/w” and “about 1.6 % w/w”, respectively.
